# Tested on: E. coli BUM1 carrying the mutant gene (pEp-mut)
# Assay: Growth on M9 plates with SMM, bacteria carrying the mutant gene
# Type: cell-based, Escherichia coli
# Settings: 50 μM SMM, 48 hrs, 37° C.
# Method: This strain also requires proline and thiamin, regardless of AHAS expression. Transformation of BUM1 cells was achieved using a standard heat shock protocol. BUM1 cells were grown in LB or in M9 minimal medium (7 mg/ml Na2HPO4; 3 mg/ml KH2PO4; 0.5 mg/ml NaCl; 1 mg/ml NH4Cl; 0.12 mg/ml MgSO4; 0.35 mg/ml thiamin HCl; 2 mg/ml glucose) supplemented with 200 μg/ml proline. Where appropriate, the M9 medium was supplemented with the BCAAs valine, leucine, and isoleucine (150 μg/ml of each) or with 50 μM SMM. BUM1 transformants were propagated and kept on LB medium supplemented with 100 μg/ml Ampicillin. For functional expression assays, the cells were washed and plated on M9 agar plates and incubated for 48 hrs at 37° C. […]
# The expression vector pEp-empty, an empty plasmid that retains the native ilvEp promoter and ATG start codon, was created by amplification of pAH29 plasmid with the pAH29-empty primer set, and included BamHI and SalI restriction sites for future fusion with the algal genes. Three forms of PiAHAS genes were used for this experiment: PiAHAS full open reading frame (ORF), truncated PiAHAS without the estimated chloroplast targeting peptide (from Serine91), and PimAHAS containing the point mutation (W605S). […] The plates were incubated for 48 hrs (FIG. 3) and bacterial growth was determined. […]
compound,measurement,value
"COC(=O)c1ccccc1S(=O)(=O)NC(=O)Nc1nc(C)cc(C)n1 [SMM, sulfometuron methyl]",bacterial growth in presence of SMM,not affected

# Source: patent US9267129B2, “Compositions and methods for conferring herbicide resistance” (BEN-GURION UNIVERSITY OF THE NEGEV RESEARCH AND DEVELOPMENT …, priority 2011, dated 2016)
